Laboratory results reported in patent US20250255847A1, “[…]s: Novel Drugs for Triple Negative Breast Cancer” (SIMMARON RSEARCH INC, priority 2024, published 2025).

Biological target: T1, DNA binding activity of STAT3 (Homo sapiens, UniProt P40763)
T1 construct: endogenous in cells; host or cells: MDA-MB-468 (nuclear extract)
Assay: Electrophoretic mobility shift assay (EMSA) in nuclear extracts
Format: cell-based
Details: EGF (20 ng/mL)-stimulated MDA-MB-468 nuclear extract, SIM-1 20 nM (FIG. 9B)
Procedure: FIG. 9 illustrates an embodiment of the present invention and illustrates promoter recruitment assay of STAT3 in IL6 promoter. (A) MDA-MB-468 cells were treated with 5, 10, and 20 ng/mL doses of EGF for 5 hrs followed by immunoblot (IB) analyses of Y705 phospho and S727 phospho STAT3 in nuclear extracts. Histone 3 ([…]) IB was run as control. (B) EMSA analyses were performed in nuclear extracts of EGF (20 ng/mL)- and EGF+SIM-1 (20 nM)-treated MDA-MB-468 cells against the STAT3-specific oligonucleotide probe (Li-Cor bioscience; Cat #P/N: 829-07922) or SEQ ID NO: 1 and resolved in 6% DNA retardation gel (Invitrogen). (C) Chromatin immunoprecipitation assay was performed in the nuclear extracts of MDA-MB-468 cells treated with EGF or EGF+SIM-1 for 5 hrs. Y705P STAT3 antibody was used for chromatin immunoprecipitation and IgG precipitation was performed as a control.
Electrophoretic Mobility Shift Assay (EMSA). EMSA was performed in […] as described before. […] were treated with 25 ng/mL EGF alone or together with SIM1 (5 nM) for 5 hrs followed by nuclear fractionation with nuclear extraction kit (Abcam). […]

T1 sequence (P40763 2-770 limits assumed): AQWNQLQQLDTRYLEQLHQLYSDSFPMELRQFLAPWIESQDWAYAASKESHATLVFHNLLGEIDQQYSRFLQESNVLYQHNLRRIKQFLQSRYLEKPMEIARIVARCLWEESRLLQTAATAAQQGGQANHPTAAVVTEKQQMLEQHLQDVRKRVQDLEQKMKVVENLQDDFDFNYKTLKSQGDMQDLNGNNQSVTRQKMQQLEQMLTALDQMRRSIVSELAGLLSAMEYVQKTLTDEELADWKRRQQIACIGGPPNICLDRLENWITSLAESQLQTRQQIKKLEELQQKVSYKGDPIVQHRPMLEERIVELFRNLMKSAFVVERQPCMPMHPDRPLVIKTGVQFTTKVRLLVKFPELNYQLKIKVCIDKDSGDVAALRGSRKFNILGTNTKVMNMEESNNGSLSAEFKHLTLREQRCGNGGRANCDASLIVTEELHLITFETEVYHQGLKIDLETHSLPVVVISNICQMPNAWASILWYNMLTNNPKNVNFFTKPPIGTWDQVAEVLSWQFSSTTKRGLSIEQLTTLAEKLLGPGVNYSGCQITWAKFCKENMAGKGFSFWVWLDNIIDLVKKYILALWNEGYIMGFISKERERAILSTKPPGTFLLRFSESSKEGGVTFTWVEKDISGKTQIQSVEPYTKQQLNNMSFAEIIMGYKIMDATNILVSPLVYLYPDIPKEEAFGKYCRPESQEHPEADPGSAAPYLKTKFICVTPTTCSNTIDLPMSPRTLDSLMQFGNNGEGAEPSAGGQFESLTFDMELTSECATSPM

With `O=C(O)CCC(=O)NCc1csc2ccc(Cl)cc12` [SIM-1, 4-[(5-chloro-1-benzothiophen-3-yl)methylamino]-4-oxobutanoic acid] the “DNA binding activity of STAT3” value was “markedly inhibited”.
